US20250269000A1, “ANTI-TUMOUR RESPONSES TO CYTOKERATINS” (SCANCELL LIMITED, priority 2020, published 2025)
Where a SMILES comes first, the peptide text is derived from it. Where no end group is shown, it is not given here. [ ]: non-standard residue; d: D form. Cit = NC(=O)NCCC[C@H](N)C(=O)O

Key:
[1] = system: B16 HHDII/iDP4 tumour cells; assay: Tumour challenge, B16 HHDII/iDP4 in HHDII/DP4 mice; type: in vivo; details: immunised tumour bearing HHDII/DP4 mice
Text: HHDII/DP4 mice were challenged with B16 tumour with IFNγ inducible DP4. Four days later the HHDII/DP4 mice were immunised with Cyk8 371-388 cit or Cyk8 371-388 wt peptide on days 4, 11 and 18. Overall survival (A), tumour volume (B) at day 29 and tumour volume throughout the study (C), post tumour implant are shown for unimmunised control mice and mice immunised with either Cyk8 371-388 cit peptide or Cyk8 371-388 wt peptide. Statistical differences between immunised and control mice were determined by Mantel-Cox test, p values are shown. The tumour volume medians and p values are shown as determined by Mann Whitney U test, n=10 in all group.
HHDII/DP4 mice were challenged with B16 tumour with IFNγ inducible DP4. Four days later the HHDII/DP4 mice were immunised with Cyk8 371-388 cit peptide on days 4, 11 and 18. Overall survival (A), tumour volume (B) at day 24 and tumour volume throughout the study (C), post tumour implant are shown for unimmunised control mice and mice immunised with Cyk8 101-120 cit peptide. Statistical differences between immunised and control mice were determined by Mantel-Cox test, p values are shown. The tumour volume medians and p values are shown as determined by Mann Whitney U test, n=10 in all group.
For tumour challenge experiments, mice were challenged with 1×10^5 B16 HHDII/iDP4 cells subcutaneously on the right flank […] before primary immunisation (unless stated otherwise) and then immunised as described above. Tumour growth was monitored at 3-4 days intervals and mice humanely euthanised once tumour reached ≥10 mm in diameter.
The effect of immunisation with Cyk8 371-388 (cit and wt) on the growth of the mouse B16 melanoma cell line transfected with IFNγ inducible human DP4 (iDP4) was assessed in HHDII/DP4 transgenic mice (FIG. 9A). […]
The effect of immunisation with Cyk8 101-120 cit on the growth of the mouse B16 melanoma cell line transfected with IFNγ inducible human DP4 (iDP4) was assessed in HHDII/DP4 transgenic mice (FIG. 10A). […]

[2] = system: HHDII/DP4 transgenic mice; assay: Ex vivo IFNγ ELISpot on splenocytes of peptide-immunised HHDII/DP4 mice; type: in vivo, mouse; details: for IFNγ responses detected in immunised mice: 25 μg peptide s.c. with CpG/MPLA once a week for three weeks, ELISpot 7 days after third immunisation; for cross-reactivity of the response to the wt version: HHDII/DP4 mice immunised with cit peptide; for IFNγ response to citrullinated peptide compared to media only: screening, HHDII/DP4 mice, 25 μg peptide with CpG/MPLA weekly for three weeks; for T cell responses in HLA-DP4 transgenic mice / reactivity to the unmodified wildtype sequence: summary statement; for IFNγ response in the presence of the CD8 antibody / IFNγ response in the presence of the anti CD4 antibody: HHDII/DP4, blocking antibody 20 μg/mL
Protocol: The HHDII/HLA-DP4 transgenic strain of mouse as described in patent WO2013/017545 A1 (EMMA repository, France) and C57BL/6 mice (Charles River, UK) were used, aged between 8 and 12 weeks, and cared for by the staff at Nottingham Trent University. All work was carried out under a Home Office project licence. Peptides were dissolved in 10% dimethylformamide to 1 mg/mL and then emulsified (a series of dilutions) with the adjuvant CpG and MPLA 6 μg/mouse of each (Invivogen, UK). Peptides (25 μg/mouse) were injected subcutaneously at the base of the tail.
ELISpot assays were performed using murine IFNγ capture and detection reagents according to the manufacturer's instructions (Mabtech, Sweden). In brief, anti-IFNγ antibody was coated onto wells of a 96-well Immobilin-P plate. Synthetic peptides (at a variety of concentrations) and 5×10^5 per well splenocytes were added to the wells of the plate in triplicate. LPS at 5 μg/mL was used as a positive control. Peptide pulsed target cells were added where relevant at 5×10^4 per well in triplicate and plates incubated for 40 hours at 37° C. After incubation, captured IFNγ was detected by a biotinylated anti-IFNγ antibody and developed with a streptavidin alkaline phosphatase and chromogenic substrate. Lipopolysaccharide (LPS; 5 μg/mL) was used as a positive control. For blocking studies, anti-CD4 blocking antibody (RPA-T4) and anti-CD8 blocking antibody (2.43) from Bioxcell were used at 20 μg/mL. Spots were analysed and counted using an automated plate reader (Cellular Technologies Ltd).
HHDII/DP4 and C57BL/6 mice were immunised with human citrullinated peptides in combination with CpG/MPLA as an adjuvant. 25 μg of peptide was administered subcutaneously as a single immunisation given once a week for three weeks Mice were culled 7 days after the third immunisation, the immune response to each peptide was assessed by ex vivo IFNγ ELISpot (FIG. 2). We have previously shown that citrullinated peptides can induce responses in the transgenic DR4 mouse strain. Given that different mouse strains have different MHC repertoires, the transgenic strain HHDII/DP4 and non-transgenic C57BL/6 mice were used for screening.
To determine if the immune response to the Cyk8 peptides is specific to the citrullinated peptide and not the wild type (wt) version, HHDII/DP4 transgenic mice were immunised with Cyk8 101-120 cit, 133-151 cit, 217-236 cit, 371-388 cit, 381-399 cit or Cyk8 101 wt, 133-151 wt, 371-388 wt peptides. HHDII/DP4 mice received 25 μg peptide with CpG/MPLA subcutaneously once a week for three weeks. Mice were culled 7 days after the third immunisation, the immune response to each peptide was assessed by ex vivo ELISpot (FIGS. 3A and 3B).
To determine whether the response to Cyk8 8-26 cit, Cyk8 101-120 cit, Cyk8 133-151 cit, Cyk8 371-388 cit, Cyk8 381-399 cit is CD4 dependent HHDII/DP4 transgenic mice and C57BL/6 mice received 25 μg peptide subcutaneously in combination with CpG/MPLA as an adjuvant, once a week for three weeks (FIG. 6A HHDII/DP4, FIG. 6B C57BL/6). Mice were culled 7 days after the third immunisation, an ELISpot assay was performed in the presence of an anti CD4 or CD8 antibody. […]

[3] = system: splenocytes of immunised HHDII/DP4 mice; assay: Peptide titration (avidity of T cell response) by IFNγ ELISpot; type: cell-based, mouse; details: peptide titration 0.001 to 10 μg/ml
Protocol: Transgenic mouse strains expressing HHDII/DP4 and parental C57BL mice were used to screen for IFNγ responses to peptide (A and B respectively). Mice were immunised with peptide pools of up to 2-3 non-overlapping human Cyk8 citrullinated peptides over three weeks. Splenocytes were harvested 21 days after the initial dose was administered. Ex vivo responses to stimulation with human Cyk8 cit peptides was assessed by IFNγ ELISpot. Media only responses were used as a negative control. n≥3 symbol represents mean response for individual mice, line represents median value between mice. Statistical significance of peptide response was compared to media only responses for each pool and determined using ANOVA with Dunnett's post-hoc test * […], ** p<0.01, *** p<0.001, **** p<0.0001, only significant p values are shown. […]
ELISpot assays were performed using murine IFNγ capture and detection reagents according to the manufacturer's instructions (Mabtech, Sweden). […] After incubation, captured IFNγ was detected by a biotinylated anti-IFNγ antibody and developed with a streptavidin alkaline phosphatase and chromogenic substrate. […] Spots were analysed and counted using an automated plate reader (Cellular Technologies Ltd).
Significant IFNγ responses were detected to human Cyk8 citrullinated peptides in transgenic HHDII/DP4 mice (FIG. 2A) and C57BL/6 mice (FIG. 2B). […]

| Molecule | associated toxicity [1] | IFNγ responses detected in immunised mice [2] | cross-reactivity of the response to the wt version [2] | IFNγ response to citrullinated peptide compared to media only [2] | T cell responses in HLA-DP4 transgenic mice [2] | reactivity to the unmodified wildtype sequence [2] | further results |
| --- | --- | --- | --- | --- | --- | --- | --- |
| CC[C@H](C)[C@H](NC(=O)[C@H](CCC(=O)O)NC(=O)[C@@H](NC(=O)[C@H](CC(=O)O)NC(=O)[C@H](CC(C)C)NC(=O)[C@H](C)NC(=O)[C@H](CC(C)C)NC(=O)[C@H](CCCCN)NC(=O)[C@@H](NC(=O)[C@H](CC(N)=O)NC(=O)[C@H](CCSC)NC(=O)[C@H](CC(C)C)NC(=O)[C@H](CCC(=O)O)NC(=O)[C@H](CCC(N)=O)NC(=O)[C@H](Cc1ccc(O)cc1)NC(=O)[C@H](CCC(=O)O)NC(=O)[C@H](CCCNC(N)=O)NC(=O)[C@@H](N)CC(C)C)C(C)C)[C@@H](C)CC)C(=O)O [Cyk8 371-388 cit, L-cit-EYQELMNVKLALDIEI] (H-L[Cit]EYQELMNVKLALDIEI-OH) | no associated toxicity |  |  |  |  |  |  |
| KFASFIDKVRFLEQQNKMLE (listed as Homo sapiens) [Cyk8 101-120 wt, wild type (unmodified) Cyk8 101-120 peptide, reference compound] |  | Low to moderate |  |  |  |  |  |
| LTDEINFL-cit-QLYEEEI-cit-ELQ (LTDEINFL[Cit]QLYEEEI[Cit]ELQ) [Cyk8 217-236 cit, Cyk8 217-236, citrullinated at positions 225 and 233] |  | Moderate to high | no cross-reactivity | significant immune responses | potent T cell responses | minimal reactivity | log EC50 (avidity of T cell response) ([3]; unit not given): -5.0 to-5.9 |
| cit-SNMDNMFESYINNL-cit-cit-QL ([Cit]SNMDNMFESYINNL[Cit][Cit]QL) [Cyk8 133-151 cit, Cyk8 133-151, citrullinated at position 133, 148 and 149] |  | Moderate to high | no cross-reactivity | significant immune responses | potent T cell responses | minimal reactivity | IFNγ response in the presence of the CD8 antibody [2]: not significantly reduced; IFNγ response in the presence of the anti CD4 antibody [2]: not significantly reduced; log EC50 (avidity of T cell response) [3]: -6.0 to-6.5 M |
| CC[C@H](C)[C@H](NC(=O)[C@H](CCC(=O)O)NC(=O)[C@@H](NC(=O)[C@H](CC(=O)O)NC(=O)[C@H](CC(C)C)NC(=O)[C@H](C)NC(=O)[C@H](CC(C)C)NC(=O)[C@H](CCCCN)NC(=O)[C@@H](NC(=O)[C@H](CC(N)=O)NC(=O)[C@H](CCSC)NC(=O)[C@H](CC(C)C)NC(=O)[C@H](CCC(=O)O)NC(=O)[C@H](CCC(N)=O)NC(=O)[C@H](Cc1ccc(O)cc1)NC(=O)[C@H](CCC(=O)O)NC(=O)[C@H](CCCNC(=N)N)NC(=O)[C@@H](N)CC(C)C)C(C)C)[C@@H](C)CC)C(=O)O [Cyk8 371-388 wt, LREYQELMNVKLALDIEI, reference compound] (H-LREYQELMNVKLALDIEI-OH) | no associated toxicity |  |  |  |  |  |  |
| CC[C@H](C)[C@H](NC(=O)[C@H](Cc1ccccc1)NC(=O)[C@H](CO)NC(=O)[C@H](C)NC(=O)[C@H](Cc1ccccc1)NC(=O)[C@@H](N)CCCCN)C(=O)N[C@@H](CC(=O)O)C(=O)N[C@@H](CCCCN)C(=O)N[C@H](C(=O)N[C@@H](CCCNC(N)=O)C(=O)N[C@@H](Cc1ccccc1)C(=O)N[C@@H](CC(C)C)C(=O)N[C@@H](CCC(=O)O)C(=O)N[C@@H](CCC(N)=O)C(=O)N[C@@H](CCC(N)=O)C(=O)N[C@@H](CC(N)=O)C(=O)N[C@@H](CCCCN)C(=O)N[C@@H](CCSC)C(=O)N[C@@H](CC(C)C)C(=O)N[C@@H](CCC(=O)O)C(=O)O)C(C)C [Cyk8 101-120 cit, KFASFIDKV-cit-FLEQQNKMLE] (H-KFASFIDKV[Cit]FLEQQNKMLE-OH) | no associated toxicity |  |  |  |  |  |  |
| RSNMDNMFESYINNLRRQL (listed as Homo sapiens) [Cyk8 131-15 wt, wild type (unmodified) Cyk8 133-151 peptide, reference compound] |  | Low to moderate |  |  |  |  |  |
| KLALDIEIATY-cit-KLLEGEE (KLALDIEIATY[Cit]KLLEGEE) [Cyk8 381-399 cit, Cyk8 381-399, citrullinated at position 392] |  | Moderate to high | no cross-reactivity | significant immune responses | potent T cell responses | minimal reactivity | IFNγ response in the presence of the CD8 antibody [2]: significantly reduced; IFNγ response in the presence of the anti CD4 antibody [2]: significantly reduced |
